Laboratory results from patent publication US20250049860A1, “METHOD FOR ISOLATING, MAINTAINING, PROLIFERATING, AND DIFFERENTIATING MONOCLONAL CELLS DERIVED FROM HUMAN SALIVARY GLAND EPITHELIAL STEM CELLS OR PROGENITOR CELLS AND PRODUCTION METHOD FOR EXTRACELLULAR VESICLES FOR TREATING SALIVARY GLAND DISEASES” (INDUSTRY-ACADEMIC COOPERATION FOUNDATION, YONSEI UNIVERSITY, priority 2021, published 2025).

How the values were obtained:
Format in all cases: cell-based
[1] = tested on: human salivary gland epithelial cells; assay: Small molecule compound combination check in K-SFM; settings: for result of addition to the culture: various combinations of small molecule compounds
Source text: Isoproterenol had no effect.

[2] = tested on: human salivary gland epithelial cells; assay: Concentration screening of small molecule compounds and their combination in Dermacult (KEM); settings: added in combination to KEM (Dermacult)
Protocol: Dermacult, which can stably culture human salivary gland epithelial cells in CDM, was used as the epithelial cell culture medium (keratinocyte expansion medium, KEM), and the small molecule compounds ROCK I/II inhibitor (Y-27632), TGF-beta pathway inhibitor (A83-01), and BMP pathway inhibitor (LDN193189) were added to determine the optimal concentrations at which cell characteristics were maintained and stable long-term culture was achieved, respectively (FIG. 3).
Finally, the combination experiments with different concentrations of the small molecule compounds confirmed that salivary gland epithelial cell growth was best maintained when Y-27632 10 μM, A83-01 1 μM, and LDN193189 0.1 μM were added to KEM (FIG. 4).

[3] = tested on: human salivary gland epithelial cells; assay: Addition of WNT during cell separation with initial SCM in K-SFM
Protocol: • (1) The cells were homogenized in 10 ml culture medium, spread evenly onto a 100×20 mm culture dish, and then incubated in an incubator at 37° C. and 5% CO2. In this case, the composition of each culture medium is as shown in Table 1. • (2) To perform the subfractionation culturing method (SCM) to isolate epithelial monoclonal cells, after 2 hours, the culture medium containing the cells was transferred to a new 100×20 mm culture dish. This procedure was repeated two more times. • (3) After 24 hours, the dish resulting from (2) was cultured, and the existing culture medium was removed every 2-3 days and replaced it with fresh culture medium. • (4) After confirming the formation of colonies, when the size of a cell cluster forming one colony exceeded 1 cm^2, the culture medium was removed, the cluster was marked with a hydrophobic pen, and the residual culture medium was removed using 1×PBS. 50 to 100 μL of TrypLE+Y27632 was added, and the cells were stored in an incubator at 37° C. and 5% CO2 environment for 15 minutes. • (5) Each cell population detached from the dish by TrypLE was added to a separate 1.5 ml tube, and 1 ml of culture medium was added. • (6) After centrifugation at 300 g for 5 minutes at 4° C., the supernatant was removed, and the cells were homogenized and spread in 250 μL of fresh culture medium into each well of a 48-well plate for each cell population. […]

| Molecule | result of addition to the culture [1] | concentration at which salivary gland epithelial cell growth was best maintained [2] [µM] | other results |
| --- | --- | --- | --- |
| CC(C)NCC(O)c1ccc(O)c(O)c1 (centres unmarked) [Isoproterenol] | no effect | – | – |
| C[C@@H](N)[C@H]1CC[C@H](C(=O)Nc2ccncc2)CC1 [Y-27632] | universally good results | 10 | – |
| c1ccc2c(-c3cnn4cc(-c5ccc(N6CCNCC6)cc5)cnc34)ccnc2c1 [LDN193189] | – | 0.1 | – |
| CC(C)Oc1ccc(-c2cnc3c(-c4ccnc5ccccc45)cnn3c2)cc1 [DMH-1] | – | – | concentration giving effects similar to Dermacult's YAL ([1]; LDN193189 replaced with DMH-1): 1 µM |
| Cc1c[nH]c(-c2cnc(NCCNc3ccc(C#N)cn3)nc2-c2ccc(Cl)cc2Cl)n1 [Chir99021] | poor results | – | – |
| Cc1cccc(-c2nn(C(=S)Nc3ccccc3)cc2-c2ccnc3ccccc23)n1 [A83-01] | universally good results | 1 | – |
| O=C(NOC[C@H](O)CO)c1ccc(F)c(F)c1Nc1ccc(I)cc1F [PD0325901] | poor results | – | – |
| WNT: growth factor WNT3A, Recombinant Human Wnt-3a Protein (protein, UniProt P56704 19-352, looked up) Protein Wnt-3a: SYPIWWSLAVGPQYSSLGSQPILCASIPGLVPKQLRFCRNYVEIMPSVAEGIKIGIQECQHQFRGRRWNCTTVHDSLAIFGPVLDKATRESAFVHAIASAGVAFAVTRSCAEGTAAICGCSSRHQGSPGKGWKWGGCSEDIEFGGMVSREFADARENRPDARSAMNRHNNEAGRQAIASHMHLKCKCHGLSGSCEVKTCWWSQPDFRAIGDFLKDKYDSASEMVVEKHRESRGWVETLRPRYTYFKVPTERDLVYYEASPNFCEPNPETGSFGTRDRTCNVSSHGIDGCDLLCCGRGHNARAERRREKCRCVFHWCCYVSCQECTRVYDVHTCK | – | – | effect on cell growth ([3]; initial addition): rapid cell growth; effect on cell morphology ([3]; prolonged addition): changed the morphology of the cells |
